The test system of series [1] is IL-6 reactive STAT3 reporter gene. Kind of series: IL-6 reactive STAT3 reporter gene test (pSTAT3-TA-Luc6 luciferase) in HepG2 cells. Conditions: Homo sapiens. The format is cell-based. The method, then:
A pSTAT3-TA-Luc6 construct, which comprises 8 more STAT3 DNA binding sequence copies as compared to pSTAT-3-TA-Luc and thus, enables to better reflect STAT3 reporter gene assay, was prepared. STAT3 DNA binding sequence was amplified using pSTAT3-TA-Luc plasmid (Clontech, Palo Alto, Calif.) as the template, and oligonucleotide ([…]. SEQ ID NO: 1 (containing Kpn I site)) and oligonucleotide ([…] GAAGCAACGTTC (containing Xho I site)) as forward primer and reverse primer, respectively, by means of a thermocycler. The amplified PCR product was cloned, separated, and then inserted into Kpn I/Xho I site of pSTAT3-TA-Luc plasmid.
Human hepatoma cell line, HepG2 cell, was incubated in MEM (Minimal Essential Medium, WelGENE Inc, Daegu, Korea) medium under water-saturated condition at 37° C., 5% CO2. To this medium was added 10% (v/v) fetal bovine serum, streptomycin (100 U/mL) and penicillin (100 U/mL). 6-Well cell culture plate was allowed to grow cells up to 80%, and then the specimen was pre-treated for one hour. Then, the medium was changed into 50 μL of serum-free medium, and the mixed solution of 0.1 μL pSTAT3-TA-Luc6 construct and 0.3 μL lipofectamin reagent was added to each well and then allowed to react for 3 hours to transfect cells with pSTAT3-TA-Luc6 construct. The medium was changed to a fresh medium, and the plate was incubated for 24 hours to transiently transfect cells. The transfected cells were serum-starved with 1% BSA/DMEM, and treated with the samples for one hour and then, after adding IL-6, incubated for 3 hours. The mixture was washed with PBS, shaken for one minute with addition of 50 μL of lysis buffer (promega luciferase assay system). After adding 30-100 μL of luciferase substrate (Promega luciferase assay system), the mixture was measured by a luminometer within 5 minutes.
Among others Compounds 1 and 3 as the materials having high inhibitory effect on IL-6 activity were used at various concentration to measure the degree of inhibitory effect, and the results thereof are as shown in FIGS. 2 and 3.
For orientation: Reporter assays use an easily measured gene product as a stand-in for the process of interest.

Series [2] has as its system IL-6 induced STAT3 phosphorylation. As to the kind of experiment: Test for inhibitory activity against STAT3 phosphorylation induced by IL-6 (Western blot, HepG2). The format is cell-based, human. To be noted: HepG2, 1, 3, 10, 30, 100 ug/ml, 10 ng/ml IL-6 (FIG. 4). The method, then: HepG2 cells were divisionally inoculated in 6-well plate in the ratio of 5×10^4 cells/well, and grown to be 80% confluent. After changing to a serum-free medium and incubating for 6 hours, cells were pre-treated with the samples for one hour. […] Then the mixture was centrifuged (13,000×g, 15 minutes) to obtain a lysate as the supernatant. Herein, HepG2 cells not treated with IL-6 and the samples were used as the control group. The concentration of proteins was quantified by means of Bio-Rad DC protein assay kit, and the protein was loaded on 10% SDS-polyacrylamide gel (SDS-PAGE) and electrophoresed at 30 mA for 2 hours. After completion of the electrophoresis, the protein on gel was transcribed into PVDF membrane (Westran® S, pore size […]) at 90V for 90 minutes, and the transcribed membrane was blocked with Tris-buffered solution (T-TBS; 50 mM Tri-HCl, pH 7.6, 150 mM NaCl, 0.2% Tween-20, 5% skim milk) at 4° C. for 12 hours, and washed five time with T-TBS. The membrane was treated with polyclonal antibodies of phospho-STAT3 (1:1000 dilutions, respectively) as the primary antibody for 2 hours. After washing five times with T-TBS, the membrane was reacted with HRP-conjugated anti-rabbit antibody (1:5000 dilutions) as the secondary antibody for one hour. After washing with T-TBS, the film was developed in the dark room by means of ECL.
(In western blotting, separated proteins are transferred to a membrane and probed.)

Series [3] has as its system IL-6 induced ERK phosphorylation. Kind of series: Test for inhibitory activity against ERK phosphorylation induced by IL-6 (Western blot, HepG2). Conditions: HepG2, 30 μg/ml (FIG. 5). The series is classed as cell-based, human. The method, then: HepG2 cell was divisionally inoculated in 6-well plate, and then starved for 18 hours.
The starved cells were treated with the samples for one hour, and then stimulated with IL-6 or LIF (Upstate Biotechnology, USA) for 10 minutes. The specimen was treated with 5× cell lysis buffer (Promega) sometimes with vortexing under ice for 30 minutes. The cell lysate obtained as described under B in Experiment 1 (3) was dissolved in 8% SDS-PAGE gel, and transferred to the nitrocellulose membrane. This membrane was blocked with Tris-buffered solution (50 mM Tris-HCl (pH 7.4), 150 mM NaCl, 0.1% Tween 20) containing 5% non-fat dry milk at 4° C. Then, it was incubated together with an appropriate primary antibody (ERK) present in Tris-buffered solution (50 mM Tris-HCl (pH 7.4), 150 mM NaCl, 0.1% Tween 20) containing 5% non-fat dry milk, at room temperature for 1-2 hours. This membrane was washed five times with TBS buffer solution for 10 minutes, and incubated with 1:6000 diluted horseradish peroxidase-conjugated secondary antibodies for one hour. The membrane was washed 10 times with TBS buffer solution, and then mixed and incubated with the 1:1 mixture of HRP Substrate Luminol Reagent and HRP Substrate Peroxide Solution as ELC reagent (Millipore Corp. Ma USA). The chemiluminescent signals were visualized with X-ray film.

A further series has as its system Respective cell lines. As to the kind of experiment: Cytotoxicity assay (MTT). The series is classed as cell-based. To be noted: 48 hours. The method, then:
In testing the compounds in cell lines, if cells are killed due to a toxicity of the compounds at the treatment concentration, a significant result cannot be obtained. Therefore, the toxicity assay was conducted by treatment with the compounds as follows. Respective cell lines were maintained on 96-well cell culture plate in the medium comprising 10% FBS with 1% Penicillin G/streptomycin, and then incubated under 37° C., 5% CO2 condition. All the experiments were repeated three times. The samples were properly diluted, and then cells were treated with the diluted samples at the concentrations of 1, 3, 10, 30, 100 μg/ml. After 48 hours, 10% (v/v) 5 mg/mL 3-(4,5-dimethylthiazol-2-yl)-2,5-diphenyltetrazolium bromide (MTT; Sigma) was added to the cell culture. After 3 hours of the incubation, the medium was aspirated and washed with PBS. After adding DMSO (100 μl), the mixture was gently agitated for 5 minutes. The absorbance was measured at 570 nm by means of VERSA max microplate reader (Molecular Devices Inc.), and the average absorbance (±SE) values as obtained from three experiments were compared with t-test, a statistical significance of P<0.05. When Compounds 1 and 3 were used at the concentrations of 1, 3, 10, 30, 100 μg/ml, the survival rates of cells were 94, 76, 70, 67, 30%, respectively, by the treatment with Compound 1, and 74, 71, 65, 57, 19%, respectively, by the treatment with Compound 3. It means that at least 50% of cells survive at the concentration (for example, 30 μg/ml) of the compounds of the present invention for measuring IL-6 inhibitory activity.

The mark [4] stands for this setting: HepG2, 20 ug/ml of sample, HepG2 cells, read-out: Inhibition % of IL-6 reactive STAT3 reporter gene activity.

Each structure is given as a SMILES string. Where two headings read alike, the source gives them in different places.

Broadly, the IC50 is the point on the concentration scale where inhibition reaches its midpoint. Usually melting point stands for the temperature, or range, at which the solid turns liquid.

For the compound `CCc1ccc(Nc2nc3cc(N)ccc3o2)cc1` [Compound 1, N^2-(4-ethylphenyl)benzo[d]oxazole-2,5-diamine], the inhibition at 20 µg/mL in series [1] (setting [4]) turned out to be 97%. The IC50 in series [1] (HepG2 cells, various concentrations (FIGS. 2 and 3), read-out: IC50 of IL-6 inhibitory activity (STAT3 reporter gene)) worked out at 18.9 µM. In addition, the “Inhibitory activity on IL-6 induced STAT3 phosphorylation” value in series [2] is “inhibited IL-6 expression in a concentration-dependent manner”. In addition, the “Influence on IL-6 induced ERK phosphorylation” value in series [3] is reported as “did not influence on ERK phosphorylation”. Moreover, the “Survival rate of cells” value with Respective cell lines (1 μg/ml) came to 94%; in the series on Respective cell lines (3 μg/ml), 76%; in the series on Respective cell lines (10 μg/ml) it was 70%; in the series on Respective cell lines (30 μg/ml), 67%; with Respective cell lines (100 μg/ml), 30%.

`CCCCCCCc1ccc(C(=O)Nc2ccc3oc(Nc4ccc(CC)cc4)nc3c2)cc1` [Compound 15, N-(2-(4-ethylphenylamino)benzo[d]oxazol-5-yl)-4-heptylbenzamide] gave a melting point of 244.8 to 246 °C. In series [1] (setting [4]), the inhibition at 20 µg/mL is 57.2%.

`CCc1ccc(Nc2nc3cc(NC(=O)c4cc(OC)c(OC)c(OC)c4)ccc3o2)cc1` [Compound 14, N-(2-(4-ethylphenylamino)benzo[d]oxazol-5-yl)-3,4,5-trimethoxybenzamide] yielded a melting point greater than 250 °C. Also, in series [1] (HepG2, read-out: Inhibition % of IL-6 reactive STAT3 reporter gene activity, 20 ug/ml of sample, HepG2 cells), the inhibition at 20 µg/mL is greater than 80%.

In the case of `CCc1ccc(Nc2nc3cc(NC(=O)c4cc(F)cc(C(F)(F)F)c4)ccc3o2)cc1` [Compound 10, N-(2-(4-ethylphenylamino)benzo[d]oxazol-5-yl)-3-fluoro-5-(trifluoromethyl)benzamide], the melting point is greater than 250 °C. Moreover, the inhibition at 20 µg/mL in series [1] (setting [4]) amounted to 50.2%.

As to `CCc1ccc(Nc2nc3cc(NC(=O)c4ccc(Cl)c(Cl)c4)ccc3o2)cc1` [Compound 7, 3,4-dichloro-N-(2-(4-ethylphenylamino)-benzo[d]oxazol-5-yl)benzamide], the inhibition at 20 µg/mL in series [1] (setting [4]) was 69.3%.

Turning to `CCc1ccc(Nc2nc3cc(NC(=O)c4cc([N+](=O)[O-])ccc4Cl)ccc3o2)cc1` [Compound 6, 2-chloro-N-(2-(4-ethylphenylamino)benzo[d]oxazol-5-yl)-5-nitrobenzamide], the inhibition at 20 µg/mL in series [1] (setting [4]) turned out to be 65.6%.

`CCc1ccc(Nc2nc3cc(NC(=O)c4ccc(CC)cc4)ccc3o2)cc1` [Compound 9, 4-ethyl-N-(2-(4-ethylphenylamino)benzo[d]oxazol-5-yl)benzamide] had a melting point greater than 250 °C. For the same compound, in series [1] (setting [4]), the inhibition at 20 µg/mL came out at 63.3%.

For `CCc1ccc(Nc2nc3cc(NC(=O)Cc4ccccc4)ccc3o2)cc1` [Compound 2, N-(2-(4-ethylphenylamino)benzo[d]oxazol-5-yl)-2-phenylacetamide], the melting point is greater than 250 °C. For the same compound, the inhibition at 20 µg/mL in series [1] (setting [4]) came out at 61.7%.

As for `CCc1ccc(Nc2nc3cc(NC(=O)c4ccc(Cl)cc4)ccc3o2)cc1` [Compound 4, 4-chloro-N-(2-(4-ethylphenylamino)benzo[d]oxazol-5-yl)benzamide], the melting point is greater than 250 °C. Also, the inhibition at 20 µg/mL in series [1] (setting [4]) was found to be 12.1%.

As to `CCc1ccc(Nc2nc3cc(NC(=O)c4ccc(C(C)(C)C)cc4)ccc3o2)cc1` [Compound 12, 4-tert-butyl-N-(2-(4-ethylphenylamino)-benzo[d]oxazol-5-yl)benzamide], the inhibition at 20 µg/mL in series [1] (setting [4]) was greater than 80%.

Consider `CCc1ccc(Nc2nc3cc(NC(=O)c4ccccc4Nc4cccc(C(F)(F)F)c4)ccc3o2)cc1` [Compound 16, N-(2-(4-ethylphenylamino)benzo[d]oxazol-5-yl)-2-(3-(trifluoromethyl)phenylamino)benzamide], for which the melting point fell in the range of 174 to 176 °C. Besides, the inhibition at 20 µg/mL in series [1] (setting [4]) was greater than 80%.

The compound `CCc1ccc(Nc2nc3cc(NC(=O)c4ccc([N+](=O)[O-])cc4Cl)ccc3o2)cc1` [Compound 5, 2-chloro-N-(2-(4-ethylphenylamino)benzo[d]oxazol-5-yl)-4-nitrobenzamide] displayed a melting point greater than 250 °C. For the same compound, the inhibition at 20 µg/mL in series [1] (setting [4]) was 20%.

The compound `CCc1ccc(Nc2nc3cc(NC(=O)c4ccc(OC)c(OC)c4)ccc3o2)cc1` [Compound 13, N-(2-(4-ethylphenylamino)benzo[d]oxazol-5-yl)-3,4-dimethoxybenzamide] came in with a melting point greater than 250 °C. Besides, the inhibition at 20 µg/mL in series [1] (setting [4]) came to 26.2%.

With `CCc1ccc(Nc2nc3cc(NC(=O)c4cccc(CCl)c4)ccc3o2)cc1` [Compound 8, 3-(chloromethyl)-N-(2-(4-ethylphenyl-amino)benzo[d]oxazol-5-yl)benzamide], the inhibition at 20 µg/mL in series [1] (setting [4]) is greater than 80%.

As for `CCOc1ccccc1C(=O)Nc1ccc2oc(Nc3ccc(CC)cc3)nc2c1` [Compound 11, 2-ethoxy-N-(2-(4-ethylphenylamino)-benzo[d]oxazol-5-yl)benzamide], the melting point was in the range of 181.6 to 182 °C. Further, the inhibition at 20 µg/mL in series [1] (setting [4]) was determined as 58%.

(Values after patent US8614240B2, “Benzoxazole derivatives having inhibitory activity against interleukin-6, preparation method thereof, and pharmaceutical composition containing the same” (EWHA University-Industry Collaboration Foundation, priority 2010, dated 2013).)
